In one experiment the test system is PGHS-2. Particulars: cytokine-treated astrocytes; cited from earlier work.
The next experiment has as its system colon polyp. Particulars: patients with familial polyposis; cited from earlier work.
In a further experiment the target is T1, griPGHS (Mus musculus, UniProt Q05769).
T1 sequence (Q05769 18-604): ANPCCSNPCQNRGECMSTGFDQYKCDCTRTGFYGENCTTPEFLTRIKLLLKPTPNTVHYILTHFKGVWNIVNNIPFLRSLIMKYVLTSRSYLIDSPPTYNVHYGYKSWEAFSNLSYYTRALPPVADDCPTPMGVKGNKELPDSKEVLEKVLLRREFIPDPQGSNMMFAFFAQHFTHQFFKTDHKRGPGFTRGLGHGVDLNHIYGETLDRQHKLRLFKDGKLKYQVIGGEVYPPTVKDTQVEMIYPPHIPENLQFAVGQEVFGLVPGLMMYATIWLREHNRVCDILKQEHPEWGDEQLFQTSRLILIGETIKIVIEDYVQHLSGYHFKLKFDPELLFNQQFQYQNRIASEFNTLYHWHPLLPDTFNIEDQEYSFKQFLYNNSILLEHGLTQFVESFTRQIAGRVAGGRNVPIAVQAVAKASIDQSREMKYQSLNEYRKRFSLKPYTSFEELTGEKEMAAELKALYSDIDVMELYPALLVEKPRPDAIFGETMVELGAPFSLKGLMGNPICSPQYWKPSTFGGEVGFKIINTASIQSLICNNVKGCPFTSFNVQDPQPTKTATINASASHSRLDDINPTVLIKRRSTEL
The note with it: E9 cells. How it is done:
(§1) Cyclooxygenase activity was determined in the cultures by addition of media containing exogenous arachidonic acid substrate (30 AM for 15 min. at 37° C.) followed by conversion of the prostaglandin E2 product to a methyl oximate form. This derivative was then quantitated by radioimmunoassay (kit from Amersham Corp.).
Prostaglandin assays were carried out as described above. For drug studies, cells were exposed to various concentrations of drugs for 30 min in serum-free DMEM and arachidonic acid was added directly from a 25×stock in DMEM. Supernatants were harvested 15 min later. Controls consisted of no drugs and wells treated with maximal concentrations of drug vehicles (1% methanol or ethanol).
Cells were placed in serum-free medium with the drugs for 30 min prior to a 15 min exposure to arachidonic acid (added directly to the media). Synthesized PGE2 was then quantitated from the supernatants by a standard radio immunoassay.

In another experiment the target is T2, human PGHS-2 (Homo sapiens, UniProt P35354).
T2 sequence (P35354 18-604): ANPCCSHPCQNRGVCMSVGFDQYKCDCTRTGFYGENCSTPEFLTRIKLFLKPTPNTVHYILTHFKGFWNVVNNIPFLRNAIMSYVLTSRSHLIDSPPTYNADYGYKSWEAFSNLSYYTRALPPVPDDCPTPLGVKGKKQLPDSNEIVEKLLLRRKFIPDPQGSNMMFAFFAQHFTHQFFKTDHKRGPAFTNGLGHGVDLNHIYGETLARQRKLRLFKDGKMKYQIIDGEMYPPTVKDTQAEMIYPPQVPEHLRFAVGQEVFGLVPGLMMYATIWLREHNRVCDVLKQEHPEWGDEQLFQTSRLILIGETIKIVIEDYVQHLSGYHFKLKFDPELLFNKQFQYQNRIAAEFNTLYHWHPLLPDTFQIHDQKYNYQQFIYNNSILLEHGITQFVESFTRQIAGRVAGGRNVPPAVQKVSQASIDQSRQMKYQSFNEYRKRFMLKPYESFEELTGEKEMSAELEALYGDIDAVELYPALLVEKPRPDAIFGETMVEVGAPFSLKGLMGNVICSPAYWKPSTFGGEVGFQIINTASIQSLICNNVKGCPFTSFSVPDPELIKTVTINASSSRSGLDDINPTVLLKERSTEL
Particulars: cell lines incl. H17A5 (PGHS-1) and 4B4 (PGHS-2), 30 min drug, 15 min arachidonic acid. How it is done: PGHS-1 and PGHS-2 cell lines (including 4B4 and H17A5) were exposed to various concentrations of NSAID for 30 min in serum-free DMEM. Arachidonic acid was added directly from a 25×stock in DMEM and supernatants were harvested 15 min later. Controls consisted of no drug treatment and cells treated with the maximal concentrations of drug vehicles (1% methanol or ethanol). […] Cyclooxygenase activity was determined as described herein above.

In the next experiment the test system is colon tumor. The note with it: several clinical trials; cited from earlier work.
The subject of another experiment is 2.8-kb PGHS mRNA. Kind of experiment: Northern blot of 2.8-kb PGHS (PGHS-1) mRNA in human monocytes. It is filed as cell-based. The note with it: IL-1β, dexamethasone or cycloheximide treatment. How it is done: (§2) Poly-A enriched RNAs (2.5 μg) from C127 cells were fractionated by formaldehyde-agarose gel electrophoresis and transferred to a membrane (Duralon, Stratagene). Hybridization was carried out as previously described by O'Banion et al., 1991, J. Virol., 65:3481-3488, using the 5′ 1.2 kb EcoRI fragment of the 4.1 kb cDNA labeled with ^32P by random priming as disclosed by Feinberg et al., 1983, Anal. Biochem., 132:6-13. The membrane was later rehybridized with a similarly labeled portion (1.6 kb 5′ end) of the 2.8 kb ovine PGHS cDNA (Oxford Biomedical Research, Inc.), and an end-labeled 40-mer complimentary to β-tubulin (Oncor). RNA molecular weight markers (Life Technologies) were visualized by ethidium bromide staining. A similar analysis was performed on total RNA (5 μg/lane) isolated from human monocytes by the guanidinium-acid-phenol extraction method of Chomczynski et al., 1987, Anal. Biochem., 162:156-159.
Adherent human monocytes isolated from healthy donors as described by Roberts et al., 1978, J. Immunol, 121:1052-1058, were suspended in M199 medium without serum at 1×10^6 cells/ml. one ml aliquots in 5 ml polypropylene tubes were incubated with loosened caps in 5% CO2 at 37° C. with occasional shaking. […]

In experiment [1] the test system is griPGHS mRNA (4.8-kb mRNA). Kind of experiment: Northern blot of griPGHS (PGHS-2) mRNA in human monocytes. It is filed as cell-based. The note with it: for increased levels of griPGHS mRNA relative to control: IL-1β 10 half-maximal units. The procedure:
as §2
(§3) Adherent human monocytes isolated from healthy donors as described by Roberts et al., 1978, J. Immunol, 121:1052-1058, were suspended in M199 medium without serum at 1×10^6 cells/ml. one ml aliquots in 5 ml polypropylene tubes were incubated with loosened caps in 5% CO2 at 37° C. with occasional shaking. To derive the autoradiograph shown in FIG. 3A, monocytes were incubated for 4 hr in the presence or absence of dexamethasone (1 AM; Sigma) prior to total RNA isolation by the procedure of P. Chomczynski et al., cited above. Five μg RNA was subjected to Northern blot analysis as described by O'Banion et al., 1991, J. Biol. Chem., 34:23261-23267 with the indicated probes labeled by random priming (kit from Boehringer-Mannheim) to a specific activity >1×10^9 cpm/μg. To derive the autoradiograph shown in FIG. 3B, monocytes were treated with dexamethasone (1 μM), […] (10 half-maximal units, Collaborative Research), or both for the indicated times prior to RNA isolation. Cycloheximide (25 μM; Sigma) was added to one set of incubations 15 min prior to the addition of cytokine or hormone.

The test system of a further experiment is C127 mouse fibroblasts. Nature of the experiment: Inhibition of protein synthesis in C127 cell cultures. Particulars: C127, 0.25 h, within 15 min. It is filed as cell-based. How it is done:
Exponentially growing, subconfluent (60-80%) cell monolayers (35-mm plates) were labeled in Dulbecco's modified Eagle's medium without methionine (Life Technologies) plus 200 μCi/ml Tran^35S-label (>1,000 Ci/mmol; ICN) for 15 or 30 min. In some cases, fresh fetal calf serum (10%) was present during the labeling period. Monolayers were rinsed twice with ice-cold Dulbecco's modified Eagle's medium (DMEM) with methionine prior to lysis in 200 μl of A8 buffer (9.5 M urea, 2% (w/v) Nonidet P-40, 2% (w/v) ampholines (LKB, 1.6% pH range 5-8, 04.% pH range 3.5-10), 5% (w/v) 2-mercaptoethanol). Incorporation of label into proteins was determined by trichloroacetic acid precipitation. Dexamethasone (Sigma) was freshly prepared in phosphate-buffered saline (PBS) (stock concentrations based on molar extinction coefficient of 1.5×10^4 liters/mol/cm at 250 nn) and added to 1 μM. The calcium ionophore A23187 (Calbiochem) was used at a concentration of 5 μM from a 2.5 mM stock in ethanol. Cycloheximide (Sigma) was used at a concentration of 25 μM from a 100× stock in water. This level inhibited protein synthesis by >97% within 15 min. Control cultures received appropriate amounts of solvents.

For a further experiment, the system named is human monocytes. Nature of the experiment: Accumulated PGE2 in supernatant of human monocytes. It is filed as cell-based. The note with it: after 4 hr of incubation, dexamethasone 1 μM; without 122.5. How it is done: as §1
as §3, with “Cycloheximide (25 μM; Sigma) was added to one set of incubations 15 min prior to the addition of cytokine or hormone.” left out

Experiment [2] relates to lung disease of cystic fibrosis. The note with it: high-dose, cystic fibrosis patient population; cited from earlier work.

Consider `CS(=O)(=O)Nc1ccc([N+](=O)[O-])cc1OC1CCCCC1` [NS-398], for which the induced cyclooxygenase activity entry in the experiment with PGHS-2 was “blocked”. On to `CC1=C(CC(=O)O)c2cc(F)ccc2/C1=C\c1ccc([S+](C)[O-])cc1` (stereo not drawn) [Sulindac], for which the “effect on colon polyps” value in the experiment with colon polyp is listed as “colon polyp regression”. For `CC(=O)Nc1ccc(O)cc1` [acetaminophen], the “potency against griPGHS activity (rank among four NSAIDs)” value at griPGHS (0.2 μM-2 mM, 30 min drug then 15 min arachidonic acid) is “the least”. Also, on griPGHS (highest dose tested), the “concentration not sufficient for full inhibition of griPGHS activity” value was greater than 2 mM. Consider `CC(=O)Oc1ccccc1C(=O)O` [aspirin], for which the “levels of drug required for inhibition, cells expressing PGHS-1 versus PGHS-2” value at human PGHS-2 is given as “different”. Besides, the “association of use with colon tumor outcome” value in the experiment on colon tumor was “decreased colon tumor growth and death”. Usually inhibition stands for the drop in the measured response relative to a control, in per cent. Read a low inhibition as a weak effect. As to `C[C@@H]1C[C@@H]([C@H](O)CC2CC(=O)NC(=O)C2)C(=O)[C@@H](C)C1` [cycloheximide], in the experiment on 2.8-kb PGHS mRNA, the “levels of the 2.8-kb mRNA relative to β-tubulin” value is listed as “not significantly altered”. Also, the “effect on 4.8-kb griPGHS mRNA” value in experiment [1] (cycloheximide 25 μM added 15 min before cytokine or hormone) is on record as “superinduction”. Further, the inhibition at 25 µM with C127 mouse fibroblasts was greater than 97%. Regarding `C[C@@H]1C[C@H]2[C@@H]3CCC4=CC(=O)C=C[C@]4(C)[C@@]3(F)[C@@H](O)C[C@]2(C)[C@@]1(O)C(=O)CO` [dexamethasone], in the experiment with human monocytes, the “level of accumulated PGE2 in the supernatant” value amounted to 52.5 pg per 10^4 monocytes. For the same compound, the “griPGHS mRNA levels down-regulated, normalized to β-tubulin” value in experiment [1] (dexamethasone 1 μM, 4 hr, human monocytes) turned out to be 5 fold. For `CC(C)Cc1ccc(C(C)C(=O)O)cc1` (stereo not drawn) [ibuprofen], the “effect on lung disease” value in [2] was “slows the progression of lung disease”. Take “IL-1β: proinflammatory cytokine, known mediator of inflammation (Collaborative Research)”: the “levels of the 2.8-kb mRNA relative to β-tubulin” value in the experiment on 2.8-kb PGHS mRNA was “not significantly altered”. The “increased levels of griPGHS mRNA relative to control” value is reported as 2.5 fold in [1] (4 hr, human monocytes) and 14 fold in [1] (12 hr, human monocytes).
